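Grown in 96-well plates, cells were treated for 48 hours with each compound at five concentrations. Insufficient inhibition: endpoint recorded as highest concentration tested. TGI: total growth inhibition.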
Assays:
Test in all cases: NCI anticancer screen, dose series, 48 h
[1] = tested on: HCT-116 colon
[2] = tested on: NCI-H226 lung
[3] = tested on: MALME-3M melanoma
[4] = tested on: UACC-257 melanoma
[5] = tested on: A549 NSCLC
[6] = tested on: SNB-19 CNS
[7] = tested on: 786-0 renal
[8] = tested on: BT-549 breast
[9] = tested on: SK-MEL-5 melanoma
[10] = tested on: DU-145 prostate
[11] = tested on: NCI/ADR-RES ovarian
[12] = tested on: IGROV1 ovarian
[13] = tested on: SK-MEL-28 melanoma
[14] = tested on: HS 578T breast
[15] = tested on: RXF 393 renal
[16] = tested on: HOP-62 NSCLC
[17] = tested on: UACC-62 melanoma
[18] = tested on: SF-539 CNS

SMILES | TGI [1] | TGI [2] | TGI [3] | TGI [4] | TGI [5] | TGI [6] | TGI [7] | TGI [8] | TGI [9] | TGI [10] | TGI [11] | TGI [12] | TGI [13] | TGI [14] | TGI [15] | TGI [16] | TGI [17] | TGI [18]
COc1cc(N(CCC#N)CCC#N)ccc1/C(N=Nc1cccc(C)c1)=N\NC(=O)c1ccc(C)cc1 | > 100 µM | > 100 µM | > 100 µM | > 100 µM | > 100 µM | > 100 µM | > 100 µM | > 100 µM | > 100 µM | > 100 µM | > 100 µM | > 100 µM | > 100 µM | > 100 µM | > 100 µM | > 100 µM | > 100 µM | –
CC(=O)NC1=CC(=O)C=C(Cl)C1=O | > 100 µM | > 100 µM | 66 µM | > 100 µM | > 100 µM | > 100 µM | > 100 µM | > 100 µM | > 100 µM | > 100 µM | > 100 µM | > 100 µM | > 100 µM | > 100 µM | > 100 µM | > 100 µM | > 100 µM | > 100 µM
O=c1c2cc([N+](=O)[O-])cnc2sn1-c1ccc(Br)cc1 | 59.3 µM | > 100 µM | 57 µM | > 100 µM | > 100 µM | > 100 µM | > 100 µM | > 100 µM | > 100 µM | > 100 µM | > 100 µM | > 100 µM | > 100 µM | > 100 µM | – | > 100 µM | > 100 µM | > 100 µM
O=c1[nH]c(=S)c2[nH]c(=O)n(-c3ccccc3)c2[nH]1 | > 100 µM | > 100 µM | > 100 µM | > 100 µM | > 100 µM | > 100 µM | > 100 µM | > 100 µM | > 100 µM | > 100 µM | > 100 µM | > 100 µM | > 100 µM | > 100 µM | > 100 µM | > 100 µM | > 100 µM | –
O=C(NC(Cc1ccccc1)P(=O)(O)c1ccccc1)OCc1ccccc1 (configuration not stated) | > 100 µM | > 100 µM | > 100 µM | > 100 µM | > 100 µM | > 100 µM | > 100 µM | > 100 µM | > 100 µM | > 100 µM | > 100 µM | > 100 µM | > 100 µM | > 100 µM | – | > 100 µM | > 100 µM | –
C1COCCOP2(N3CC3)=NP(N3CC3)(=NP(N3CC3)(N3CC3)=N2)OCCOCCO1 (configuration not stated) | > 100 µM | > 100 µM | > 100 µM | > 100 µM | > 100 µM | > 100 µM | > 100 µM | > 100 µM | > 100 µM | > 100 µM | > 100 µM | > 100 µM | – | > 100 µM | > 100 µM | > 100 µM | > 100 µM | > 100 µM
Cc1ccc(S(=O)(=O)NC(=O)NCC(=O)O)cc1 | > 100 µM | – | > 100 µM | > 100 µM | > 100 µM | > 100 µM | > 100 µM | > 100 µM | > 100 µM | > 100 µM | > 100 µM | > 100 µM | > 100 µM | > 100 µM | > 100 µM | > 100 µM | > 100 µM | > 100 µM
OCC1(CNc2cc(Cl)ncn2)CCC1 | > 100 µM | > 100 µM | > 100 µM | > 100 µM | > 100 µM | – | > 100 µM | > 100 µM | > 100 µM | > 100 µM | > 100 µM | > 100 µM | > 100 µM | > 100 µM | – | > 100 µM | – | > 100 µM
O=Cc1ccc2[nH]c(=O)oc2c1 | > 100 µM | > 100 µM | > 100 µM | > 100 µM | – | > 100 µM | > 100 µM | > 100 µM | – | > 100 µM | > 100 µM | > 100 µM | > 100 µM | > 100 µM | > 100 µM | > 100 µM | > 100 µM | > 100 µM
CSc1nc(Cl)c2c(n1)Sc1nc3ccccc3n1N=C2 | > 100 µM | > 100 µM | 68.2 µM | > 100 µM | > 100 µM | > 100 µM | 70.2 µM | 43.3 µM | 72.6 µM | > 100 µM | 55.1 µM | 36.7 µM | > 100 µM | 62.1 µM | 43.4 µM | > 100 µM | 84.3 µM | –
COC(=O)/C=C/N1CC1 | > 10 µM | > 10 µM | > 10 µM | > 10 µM | > 10 µM | > 10 µM | > 10 µM | > 10 µM | > 10 µM | > 10 µM | > 10 µM | 6.15 µM | > 10 µM | > 10 µM | – | > 10 µM | > 10 µM | > 10 µM
CCOC(=O)c1c(CN2CCOCC2)n(Cc2ccccc2)c2c1cc(O)c1nc(C)c(C)nc12 | > 100 µM | > 100 µM | > 100 µM | > 100 µM | > 100 µM | > 100 µM | 68.7 µM | 34 µM | 57.4 µM | > 100 µM | > 100 µM | – | > 100 µM | > 100 µM | – | 51.1 µM | > 100 µM | 87 µM
O=C(N1CCN(c2ccccc2)CC1)N(C(=O)C1(c2ccc(Cl)cc2)CCCC1)S(=O)(=O)c1ccccc1 | 52.7 µM | 99.3 µM | 72.3 µM | 88.1 µM | > 100 µM | 72.2 µM | > 100 µM | 80.2 µM | 40.7 µM | > 100 µM | 70.8 µM | – | > 100 µM | 88.2 µM | > 100 µM | 88.6 µM | 51.7 µM | 49.7 µM
CC(C)[Si](OC1=CCC[C@H]2NC(=O)[C@@H](Cc3ccc([N+](=O)[O-])cc3)[C@@]12C)(C(C)C)C(C)C | 12.7 µM | – | 43.4 µM | 17.8 µM | 5.17 µM | 25.9 µM | 17.8 µM | 13.2 µM | 5.58 µM | 21.3 µM | 28 µM | 28.8 µM | – | 25.1 µM | 4.72 µM | 17.3 µM | 27.7 µM | 5.41 µM
S=c1sscc1N1CCSc2ssc(=S)c21 | > 100 µM | > 100 µM | > 100 µM | > 100 µM | > 100 µM | 63.5 µM | > 100 µM | > 100 µM | > 100 µM | 81.6 µM | > 100 µM | > 100 µM | > 100 µM | > 100 µM | > 100 µM | – | > 100 µM | > 100 µM
O=c1ccc2nc3ccc(O)cc3oc-2c1 | > 100 µM | > 100 µM | 8.76 µM | 26.4 µM | > 100 µM | > 100 µM | > 79.6 µM | 44 µM | 2.95 µM | 57.5 µM | > 100 µM | > 100 µM | – | > 60 µM | > 100 µM | > 100 µM | 5.55 µM | > 59.8 µM
NNC(=O)CSc1nnc(CCCCCCCCc2nnc(SCC(=O)NN)o2)o1 | > 100 µM | > 100 µM | > 100 µM | > 100 µM | > 100 µM | > 100 µM | > 100 µM | > 100 µM | > 100 µM | > 100 µM | > 100 µM | > 100 µM | > 100 µM | > 100 µM | > 100 µM | > 100 µM | > 100 µM | –
Cn1c2c(c3c(=O)[nH]ncc31)CCCc1ccccc1-2 | > 100 µM | 86 µM | 60.7 µM | > 100 µM | > 100 µM | > 100 µM | > 100 µM | > 100 µM | 30.5 µM | > 100 µM | > 100 µM | 61.6 µM | – | > 100 µM | – | > 100 µM | > 100 µM | > 100 µM
COc1cc(C2S/C(=C/c3ccccc3)C(=O)N2c2ccccn2)cc(OC)c1OC (configuration not stated) | 20.6 µM | > 96.4 µM | 27.5 µM | > 100 µM | > 64 µM | 46.5 µM | 31.4 µM | 39 µM | 56.6 µM | 31.9 µM | 54 µM | 29.9 µM | > 74 µM | > 68 µM | 22.8 µM | 48.8 µM | 29.8 µM | –
O=C(CC(C(=O)c1cccs1)c1ccccc1)c1ccccc1O (configuration not stated) | > 100 µM | > 100 µM | – | > 100 µM | > 100 µM | > 100 µM | > 38.4 µM | > 100 µM | > 100 µM | > 100 µM | > 25.3 µM | > 57.3 µM | > 100 µM | > 22.9 µM | 27.9 µM | > 48.1 µM | > 44.6 µM | > 100 µM
CCCNC(=O)c1cc(NC(=O)c2cc(NC(=O)CCS(=O)(=O)OC)cn2C)cn1C | > 69.8 µM | – | 24.6 µM | 53.5 µM | > 100 µM | 4.82 µM | > 71.7 µM | 8.54 µM | 44.1 µM | 72.2 µM | > 100 µM | > 56.5 µM | > 100 µM | > 100 µM | 29 µM | > 53.1 µM | 48.7 µM | –
C=C(C)COC(=O)COCC(=O)OCC(=C)C | > 100 µM | > 100 µM | > 100 µM | > 100 µM | > 100 µM | > 100 µM | > 100 µM | > 100 µM | > 100 µM | > 100 µM | > 100 µM | > 100 µM | > 100 µM | > 100 µM | > 100 µM | > 100 µM | > 100 µM | –

From PubChem BioAssay (NCI)
